Results on 3 molecules are retold here after US11771669B2, “Topical composition and delivery system and its use” (SBG MEDICAL TECHNOLOGIES, INC., priority 2012, dated 2023).

One data set relates to rat cornea. Conditions: topical application onto the rat cornea, cited from earlier work.
Another data set has as its system acute pain. Conditions: 34 subjects.
The conditions of data set [1]: animal models, topical; cited from earlier work.

Protocol for acute pain: As indicated, 10 mL of venous blood was collected throughout the study period, at time intervals likely to capture peak and trough levels (Greenblatt D J et al. (1985). Arch Otolaryngol 111: 2988-3000); (Baumann L S, et al. (2010). J Drugs Dermatol 9: 1500-1504). Each subject provided self-rated pain evaluations at those same time intervals, focusing on pain at the identified site of acute pain and of drug application, using the 1-10 Visual Analog Scale (VAS) (Meier T, et al. (2003). Pain 106: 151-158).
The central data used to describe efficacy was the 10-point VAS. While this measure is subjective, the study subjects were requested specifically to be consistent in their pain estimates.

Take `O=C(O)CN(CCN(CC(=O)O)CC(=O)O)CC(=O)O` [EDTA, ethylenediaminetetraacetic acid]: in the data set on rat cornea (with MSM), the “Ocular uptake of C14 EDTA, applied with MSM” value is reported as “uptake of the C^14 EDTA in all tested ocular tissues”. In addition, the “Ocular penetration of EDTA, without MSM” value in the data set on rat cornea (without MSM) was “did not penetrate the eye”.

For `CCN(CC)CC(=O)Nc1c(C)cccc1C` [lidocaine, 2-(diethylamino)-N-(2,6-dimethylphenyl)acetamide], in the data set with acute pain (doses at 0 and 4 h), the “Number of subjects with maximum pain relief at the 1 hour point” value is given as 9 subjects, the “Subjects whose time elapsed to reach maximal pain reduction was 1 h” value is reported as 27%, the “Subjects whose time elapsed to reach maximal pain reduction was 3 h” value was found to be 21% and the “Subjects whose time elapsed to reach maximal pain reduction was 5 h” value is reported as 18%. Also, in the data set with acute pain (doses at 0 and 4 h), the “Subjects whose time elapsed to reach maximal pain reduction was 7 h” value is on record as 9%, the “Subjects whose time elapsed to reach maximal pain reduction was 9 h” value is 12% and the “Subjects whose time elapsed to reach maximal pain reduction was 11 h” value is recorded as 6%. In the data set on acute pain (maximal pain reduction), the “Number of subjects with pain relief at 50% or better” value was 28 of 34 and the “Subjects with pain reduction of 50% or greater” value came out at 82%.

Turning to methylsulfonylmethane [MSM], the “Toxicity when administered topically (in words)” value in data set [1] was “very low toxicity”.
